Experimental data reported in article PMC6544338, “Comparative biophysical characterization: A screening tool for acetylcholinesterase inhibitors” (PLoS ONE, 2019).
Counter-ions that a name gives are not always drawn. Like-named read-outs stand apart in the source and are kept apart here.

Legend:
immobilized AChE [1] = target: T1, immobilized AChE (Electrophorus electricus, UniProt O42275); assay: biochemical; type: binding; conditions: for Kd / Ka1 / Kd1: 25°C
T1 construct: purchased Sigma (St. Louis, MO, USA)
T1 sequence (O42275 24-633): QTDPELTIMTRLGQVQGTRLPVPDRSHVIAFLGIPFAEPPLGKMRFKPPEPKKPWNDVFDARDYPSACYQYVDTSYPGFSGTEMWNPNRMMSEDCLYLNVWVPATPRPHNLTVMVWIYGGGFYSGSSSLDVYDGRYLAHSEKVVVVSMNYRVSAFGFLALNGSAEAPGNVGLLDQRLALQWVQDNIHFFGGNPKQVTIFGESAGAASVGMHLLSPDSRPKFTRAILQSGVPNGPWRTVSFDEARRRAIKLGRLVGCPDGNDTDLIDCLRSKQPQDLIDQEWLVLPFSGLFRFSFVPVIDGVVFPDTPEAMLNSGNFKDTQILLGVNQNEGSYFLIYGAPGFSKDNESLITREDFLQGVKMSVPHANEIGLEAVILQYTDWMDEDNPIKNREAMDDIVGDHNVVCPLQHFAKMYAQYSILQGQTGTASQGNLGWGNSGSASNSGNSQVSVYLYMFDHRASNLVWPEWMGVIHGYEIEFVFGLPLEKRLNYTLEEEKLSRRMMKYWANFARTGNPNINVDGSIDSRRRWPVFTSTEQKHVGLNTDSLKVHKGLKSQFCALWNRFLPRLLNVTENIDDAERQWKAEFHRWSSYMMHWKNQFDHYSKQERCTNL
Protocol: (§1) The protocol was followed with some modifications for enzyme immobilization, scouting and screening. SPR interactions were performed using a Biacore X100 optical biosensor (GE Healthcare Life Sciences, Bangalore, India) at 25°C. SPR analysis was carried out in PBS (200 mM, pH 7.7) from the analyte stock solutions, working solutions were diluted before passing on to the sensor surface. Data collection was done with the help of Biacore control software ver 2.0.2 Sets of experiments were carried out by monitoring change in the refractive index as a function of time under constant flow conditions. The relative amount of inhibitor bound to the AChE was determined by measuring the net increase in the refractive index over time compared to buffer as a control. During each run, there is an inline subtraction of the reference surface. Change is reported regarding response units (RU). The surface was washed with 5 cycles of running buffer (PBS) before next analytes.
(§2) As per pH scouting studies, AChE enzyme (100μg) was dissolved in 100 mM sodium acetate buffer pH 4.5 and was immobilized to the CM5 sensor chip by using the amine coupling method. The flow rate was kept constant during immobilization at 10 μlmin^-1, the surface of flow cell was activated by 1:1 mixture of 100 mM EDC and 100 mM NHS (both dissolved in water) for 7 min. AChE was injected for 7 min, and residual activated carboxymethyl groups were blocked on the sensor surface by 7 min injection of 1M ethanolamine, pH 8.5. In this particular study, flow cell 1 was blank immobilized (without protein) and used as a reference. Inline and double referencing was done for the buffer RU compensation.
(§3) Here the model describes this competitive situation and returns two sets of rate constants, one for each reaction taking into consideration two different analytes. The same buffer was used as running buffer. The constant flow rate was maintained throughout the kinetics (45 μlmin^-1), contact time and dissociation time was kept at 120 second (s). 10 mM glycine pH 3.0 for the time period of 30 s was used for regeneration. The experiments were carried at different concentrations of inhibitors.
(§4) The analysis of data was carried out with X100 evaluation software ver 2.0.2 and fitted to two state fit for individual molecules and for competitive experiments a heterogeneous analyte binding model.

AChE [2] = target: T2, AChE (Electrophorus electricus, UniProt O42275); assay: Far-UV circular dichroism of AChE with small molecules (secondary structure composition); conditions: for change in secondary structure of AChE compared to control enzyme: CD, far-UV; for Turns of AChE in presence of the molecule / α helix of AChE in presence of the molecule / Random of AChE in presence of the molecule / β sheets of AChE in presence of the molecule: single molecule; for Turns of AChE in presence of the molecule: AChE alone 0; for α helix of AChE in presence of the molecule: AChE alone 3.6±0.012; for Random of AChE in presence of the molecule: AChE alone 44.2±0.46; for β sheets of AChE in presence of the molecule: AChE alone 52.3±0.6
T2 construct: purchased Sigma (St. Louis, MO, USA)
T2 sequence (O42275 24-633): as above
Protocol: Protein solutions 0.5 milligram per milliliter (mgml^-1) was prepared in 10 mM PBS at pH 7.7. Scans were performed at room temperature using 0.1 cm path length quartz cuvette with 8 s differential integration time at a scan rate of 100 nano meter per minute (nm min^-1). The CD spectrum of AChE enzyme individually and with different small molecules, also in combination was recorded. All spectra resulted from averaging three scans were corrected from the buffer blank. Results were expressed as molar ellipticity (°cm^2 dmol^-1) based on a mean amino acid residue weight (MRW) 110 Da for AChE. The molar ellipticity was determined as [θ obs] = {100 × (MRW) × θobs/cl}, where θ is the observed ellipticity in degrees at a given wavelength, c is the protein concentration in mgml^-1, and l is the path length in cm.
The relative percentages of the secondary structure elements were estimated in triplicates using Manager Suite software.

[3] = target: T3, acetylcholinesterase from Electrophorus electricus (Electric eel) (Electrophorus electricus, UniProt O42275); assay: Inhibition assay for acetylcholinesterase activity (modified Ellman, ATCI/DTNB, 412 nm); type: biochemical
T3 construct: purchased Sigma (St. Louis, MO, USA)
T3 sequence (O42275 24-633): as above
Protocol: The assay was performed with some modifications of Ellman et al (1961). […] The hydrolysis was monitored by the formation of yellow color (5-thio-2-nitrobenzoate anion) and the absorbance was measured at 412 nm by using spectrophotometer (UV-1800, Shimadzu, Japan).
The inhibitory activity assay was carried out with slight modifications. […] The inhibitory percentage of AChE was calculated as follows:
%inhibition = 100[A − B] − [C − D]/[A − B]
A is the OD without test substance, B is the OD without test substance and AChE, C is the OD with the test substance, D is the OD at 412 nm with the test substance and without AChE.
The relative percentage inhibition were estimated in triplicates and values were expressed as mean ± SEM (n = 3).

AChE [4] = target: T2, AChE; assay: Fluorescence spectral studies of AChE incubated with molecules; conditions: excitation 365 nm, control emission maxima […] nm, molecules at IC50 concentration, 10 min
Protocol: The fluorescence intensities were recorded using 0.5 mgml^-1 protein concentration with an excitation wavelength of 365 nm and an emission wavelength of 400–700 nm with slit widths of 20 nm using MY14410002 fluorescence spectrophotometer (Agilent Technologies, USA) at 25°C. Protein solutions of 0.5 mgml^-1 were prepared in 10 mM PBS at pH 7.7. Scans were performed at room temperature using a 1 cm path length quartz cuvette with 1 s differential integration time at a scan rate of 600 nm min^-1. […] The subsequent changes in fluorescence were measured at this wavelength.
Fig 21 a) Intrinsic fluorescence spectra of the AChE incubated with molecules. […] Scans were performed at 37°C using a 1 cm path length quartz cuvette with 1 s differential integration time at a scan rate of 600 nm min^-1. The excitation wavelength was 365 nm and emission wavelength was in the range of 400–700 nm. b) Intrinsic fluorescence spectra of the AChE incubated with molecules. […] Scans were performed at 37° C using a 1 cm path length quartz cuvette with 1 s differential integration time at a scan rate of 600 nm min^-1. The excitation wavelength was 365 nm and the emission wavelength was in the range of 400–700 nm.

immobilized AChE [5] = target: T1, immobilized AChE; assay: biochemical; type: binding; conditions: for Kd: read-out: Molecule 2 KD
Protocol: as §1, §2, §3, §4
Likewise, competitive experiments between different pairs was run by mixing 1:1 ratio of molecules and was fit to heterogeneous analyte model were studied. These experiments are helpful for determining the kinetics of a small molecule analyte in competition with other. Response contributions from both analytes are taken into account by considering molecular weight and concentrations of analytes. For competition binding experiments, pairing was done based on substrate-inhibitor and inhibitor-inhibitor interactions. […] Finally, naturally occurring crocin was also tested due to reports in the literature as a brain tonic for the Alzheimer's.

[6] = affinity fit, read-out: KD Affinity
[7] = two-state model, read-out: KD Kinetics
[8] = pair crocin (molecule 1) and ATCI (molecule 2), 1:1
[9] = pair tannic acid (molecule 1) and ATCI (molecule 2), 1:1

Structure (SMILES)	Ka2 (immobilized AChE [1])	Kd2 (immobilized AChE [1])	Kd (immobilized AChE [1]; [6]) [µM]	Ka1 (immobilized AChE [1]; two-state model) [M⁻¹ s⁻¹]	Kd1 (immobilized AChE [1]; two-state model) [s⁻¹]	Kd (immobilized AChE [1]; [7]) [µM]	change in secondary structure of AChE compared to control enzyme (AChE [2])	Turns of AChE in presence of the molecule (AChE [2]) [%]	α helix of AChE in presence of the molecule (AChE [2]) [%]	Random of AChE in presence of the molecule (AChE [2]) [%]	β sheets of AChE in presence of the molecule (AChE [2]) [%]	IC50 [3] [µM]	change in fluorescence emission of AChE compared to control enzyme (AChE [4])	other results
C[N+](C)(C)CCOC(N)=O [Carbachol, carbachol, reference compound]	0.001509±2.6×10^−4 1/s	0.001298±1.1×10^−4 1/s	1150	101000 ± 9700	0.05155 ± 0.0041	0.236	increase in α-helix and a decline in β-sheets	2.6±0.016	4.0±0.02	42.4±0.38	51.0±0.69	210 ± 15	no change	–
O=c1c(O)c(-c2ccc(O)c(O)c2)oc2cc(O)cc(O)c12 [Quercetin, quercetin]	0.006822±3.4×10^−4 1/s	0.004964±2.1×10^−4 1/s	–	117.6 ± 4.3	0.05923 ± 0.0028	–	reduction in α-helix with an increase in β-sheets	1.0±0.006	3.1±0.010	42.8±0.39	53.2±0.75	–	redshift	–
O[C@H]1[C@H]2c3cc4c(cc3CN3CCC(=C[C@@H]1O)[C@H]23)OCO4 [Lycorine hydrochloride, lycorine hydrochloride]	–	0.02658 ± 0.0061 s⁻¹	–	131.5 ± 6.3	0.3564 ± 0.011	–	increase of α-helix	0	7.2±0.045	41.6±0.34	51.2±0.72	–	increase in the intensity at 415 nm	–
C[C@@H]1O[C@@H](OC[C@H]2O[C@@H](Oc3c(-c4ccc(O)c(O)c4)oc4cc(O)cc(O)c4c3=O)[C@H](O)[C@@H](O)[C@@H]2O)[C@H](O)[C@H](O)[C@H]1O [Rutin hydrate, rutin hydrate]	0.004468±1.6×10^−4 1/s	0.002058±1.6×10^−4 1/s	1110	11.33 ± 0.25	0.04254 ± 0.0013	1180	–	0	8.8±0.056	40.7±0.27	50.5±0.72	1900 ± 90	redshift	–
O.Oc1cc(O)c2c(c1)O[C@H](c1ccc(O)c(O)c1)[C@@H](O)C2 [Catechin hydrate, catechin hydrate]	0.0158±7.1×10^−4 1/s	0.004173±1.1×10^−4 1/s	738	76.33 ± 3.4	0.06336 ± 0.0042	173	–	0	10±0.06	41±0.29	49±0.67	–	redshift	IC50 ([3]; […] ATCI, PBS 200 mM pH 7.7, 37°C, mean ± SEM (n = 3), read-out: IC50): 90 ± 1 µM
Cn1c(=O)c2c(ncn2C)n(C)c1=O [Caffeine, caffeine, reference compound]	–	–	–	–	–	–	–	–	–	–	–	380 ± 15	–	Kd (immobilized AChE [1]; KD Affinity, affinity fit): 7700 µM; Kd (immobilized AChE [1]; KD Kinetics, two-state model): 17.4 µM
CC(=O)SCC[N+](C)(C)C.[I-] [ATCI, acetylthiocholine iodide, reference compound]	12440 ± 9.6e-05 s⁻¹	–	2510	76590 ± 12000	0.4167 ± 0.13	2.23	increase in α-helix and a decline in β-sheets	0	5.9±0.035	42.8±0.39	51.3±0.70	–	no change	Molecule 2 ka2 (immobilized AChE [5]): 92910 ± 43000 M⁻¹ s⁻¹; Molecule 2 ka2 (immobilized AChE [5]; [8]): 139500 ± 19000 M⁻¹ s⁻¹; Molecule 2 kd2 (immobilized AChE [5]; [8]): 0.06452 ± 0.0034 s⁻¹; Molecule 2 ka2 (immobilized AChE [5]; [9]): 1.529e+06 ± 3.4e+06 M⁻¹ s⁻¹; Kd (immobilized AChE [5]; [9]): 0.00016 µM; Kd (immobilized AChE [5]): 0.00989 µM
